Laboratory results reported in patent publication US20230232863A1, “FEED COMPOSITION FOR TENEBRIO MOLITOR” (priority 2022, published 2023).

Legend:
Tenebrio molitor [1] = assay: Mealworm larvae feeding: survival rate; type: in vivo; conditions: alloferon peptide of 1 ppm
Method: The feeding gelatin was made with combining 200 g of distilled water and 4 g of paper gelatin (Gelita H G, Eberbach, Germany), and solidified in the refrigerator using an ice cubic stick tray with the lid closed. The same process was performed for the experimental group of gelatin containing alloferon peptide (Biomatik, Del., USA) of 1 ppm. The tray had 10 slots to make each gelatin of approximately 20 g gelatin cubic and kept in the refrigerator with the lids closed to minimize loss of moisture.
Yellow mealworms (Tenebrio molitor) were provided by a private local insect breeder (Mealworm village, Seoul, Korea). Mealworms larvae were divided into three different dietary groups: (1) About 500 larvae were placed in a plastic container (18.5×12×5.5 cm) with 30 g wheat bran only (control group), (2) About 500 larvae with wheat bran supplemented with 20 g gelatin three times per week (positive control group), (3) About 500 larvae with wheat bran supplemented with 20 g gelatin containing alloferon peptide of 1 ppm three times per week (experimental group). […]
Mealworms pupae and dead larvae were counted and removed daily from each experimental group, and the numbers were recorded for the evaluation of survival rate. The average weight of the mealworm larvae was recorded every week with 20 randomly selected mealworms.

Tenebrio molitor [2] = assay: Mealworm larvae feeding: development time (larvae-pupae transformation); type: in vivo; conditions: days until 50% of larvae changed into pupae; laboratory scale; alloferon 1 ppm
Method: The feeding gelatin was made with combining 200 g of distilled water and 4 g of paper gelatin (Gelita H G, Eberbach, Germany), and solidified in the refrigerator using an ice cubic stick tray with the lid closed. The same process was performed for the experimental group of gelatin containing alloferon peptide (Biomatik, Del., USA) of 1 ppm. The tray had 10 slots to make each gelatin of approximately 20 g gelatin cubic and kept in the refrigerator with the lids closed to minimize loss of moisture. Yellow mealworms (Tenebrio molitor) were provided by a private local insect breeder (Mealworm village, Seoul, Korea). Mealworms larvae were divided into three different dietary groups: (1) About 500 larvae were placed in a plastic container (18.5×12×5.5 cm) with 30 g wheat bran only (control group), (2) About 500 larvae with wheat bran supplemented with 20 g gelatin three times per week (positive control group), (3) About 500 larvae with wheat bran supplemented with 20 g gelatin containing alloferon peptide of 1 ppm three times per week (experimental group). Two replicated containers per each dietary group were set up, after which the containers were placed in a climate chamber at 25° C. with a relative humidity of 60%. Development time of mealworms was considered to be the number of days until 50% of mealworms larvae changed into pupae stage.

Sf9 insect cells = assay: In vitro cell proliferation analysis by PrestoBlue assay; type: cell-based; conditions: 300 nM alloferon; measured at 0, 2, 4 and 6 days
Method: The proliferation of Sf9 insect cells was analyzed by the PrestoBlue assay (Invitrogen, CA, USA). 8,000 cells/well were prepared in 96 well plates (Sigma-Aldrich, MI, USA). After cells were seeded, the cells were incubated with PBS with alloferon (300 nM). The control group received PBS without aloferon. At 0, 2, 4, and 6 days after applying 10% PrestoBlue, the color switchover of resazurin to resorufin (Absorbance 570 nm/600 nm) was measured with the microplate reader (BioTeck, Vt., USA).

Phenoloxidase = Phenoloxidase activity analysis in homogenized larvae tissue; type: in vivo, Tenebrio molitor; conditions: after alloferon diet
Method: For various analysis of biologic response, harvested mealworms larvae were killed by freezing and then all mealworms stored at −20° C. Penoloxidase activity in homogenized larvae tissue was analyzed with a 96 well microplate reader using catechol as the substrate. After the sample was incubated for 37° C. for 10 min, the 420 nm absorbance was measured with a microplate spectrophotometer (Bio-Rad, CA, USA). The essay was performed with three replicates and each experiment was repeated three times. The penoloxidase activity was expressed as units of enzyme activity per mg protein.

Q: Which “increase of survival rate” value (Tenebrio molitor [1]) does the source give for “H-His-Gly-Val-Ser-Gly-His-Gly-Gln-His-Gly-Val-His-Gly-OH (H-HGVSGHGQHGVHG-OH) [alloferon, immunomodulatory peptide (Biomatik) first isolated from hemolymph of Calliphora vicina maggots]” here?
A: over 61.8%

Q: What about the “development time shortened compared to wheat bran diet control” value (Tenebrio molitor [2]) of the same substance?
A: 40.3%

Q: And the “cell proliferation of Sf9 cells” value (Sf9 insect cells)?
A: significantly boosted cell proliferation of Sf9 cells only after 6 days

Q: What about the “phenoloxidase expression/activity in mealworm tissue” value (Phenoloxidase) of the same substance?
A: increasing the expression of penoloxidase
